Source: ChEMBL document CHEMBL3813599, “Identification of small-molecule compounds targeting the dishevelled PDZ domain by virtual screening and binding studies” (Bioorg Med Chem, 2016)
Active and inactive are the calls of the source. The rule behind the calls is not given here.

Columns and labels:
[1] = molecular target: T1, Segment polarity protein dishevelled homolog DVL-1 (Homo sapiens) (UniProt O14640)
T1 sequence (whole entry): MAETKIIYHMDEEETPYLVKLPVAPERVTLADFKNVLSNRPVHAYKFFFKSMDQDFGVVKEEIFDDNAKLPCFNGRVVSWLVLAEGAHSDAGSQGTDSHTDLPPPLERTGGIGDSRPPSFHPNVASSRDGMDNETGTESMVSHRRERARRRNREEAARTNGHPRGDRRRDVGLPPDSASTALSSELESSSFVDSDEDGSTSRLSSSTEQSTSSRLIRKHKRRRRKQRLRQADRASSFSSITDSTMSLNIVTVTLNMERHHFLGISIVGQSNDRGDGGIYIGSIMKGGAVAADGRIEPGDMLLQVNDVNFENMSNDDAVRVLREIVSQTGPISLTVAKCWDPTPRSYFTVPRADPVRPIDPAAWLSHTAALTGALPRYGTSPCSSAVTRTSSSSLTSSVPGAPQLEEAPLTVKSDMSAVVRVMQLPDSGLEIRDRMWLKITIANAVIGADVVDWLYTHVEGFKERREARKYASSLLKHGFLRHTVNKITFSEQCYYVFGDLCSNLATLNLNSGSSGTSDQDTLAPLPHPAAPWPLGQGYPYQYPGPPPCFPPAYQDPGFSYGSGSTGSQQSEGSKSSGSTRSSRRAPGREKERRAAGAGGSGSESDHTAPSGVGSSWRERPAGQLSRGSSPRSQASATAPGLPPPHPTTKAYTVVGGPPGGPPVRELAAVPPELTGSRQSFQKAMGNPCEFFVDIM
Description: Binding affinity to His-tagged Dvl-1 PDZ domain (247 to 337 residues) (unknown origin) expressed in Escherichia coli BL21 (DE3) assessed as association rate by SPR analysis

[2] = molecular target: T2, Segment polarity protein dishevelled homolog DVL-1 (Homo sapiens, UniProt O14640); assay: Binding affinity to His-tagged Dvl-1 PDZ domain (247 to 337 residues) (unknown origin) expressed in Escherichia coli BL21 (DE3) assessed as dissociation rate by SPR analysis
T2 sequence (O14640 whole entry): T1 sequence (whole entry)

[3] = molecular target: T2, Segment polarity protein dishevelled homolog DVL-1; assay: Binding affinity to His-tagged Dvl-1 PDZ domain (247 to 337 residues) (unknown origin) expressed in Escherichia coli BL21 (DE3) by SPR analysis
[4] = molecular target: T1, Segment polarity protein dishevelled homolog DVL-1 (Homo sapiens); assay: Binding affinity to His-tagged Dvl-1 PDZ domain (247 to 337 residues) (unknown origin) expressed in Escherichia coli BL21 (DE3) assessed as chemical shift perturbations at 1:0 to 1:20 protein-compound ratio by 1H-15N-HSQC NMR analysis
[5] = molecular target: T3, Segment polarity protein dishevelled homolog DVL-1 (Mus musculus, UniProt P51141); assay: Binding affinity to TMR-linked 15N-labeled mouse Dvl-1 domain ( 247 to 341 residues) by fluorescence spectroscopy
T3 sequence (P51141 whole entry): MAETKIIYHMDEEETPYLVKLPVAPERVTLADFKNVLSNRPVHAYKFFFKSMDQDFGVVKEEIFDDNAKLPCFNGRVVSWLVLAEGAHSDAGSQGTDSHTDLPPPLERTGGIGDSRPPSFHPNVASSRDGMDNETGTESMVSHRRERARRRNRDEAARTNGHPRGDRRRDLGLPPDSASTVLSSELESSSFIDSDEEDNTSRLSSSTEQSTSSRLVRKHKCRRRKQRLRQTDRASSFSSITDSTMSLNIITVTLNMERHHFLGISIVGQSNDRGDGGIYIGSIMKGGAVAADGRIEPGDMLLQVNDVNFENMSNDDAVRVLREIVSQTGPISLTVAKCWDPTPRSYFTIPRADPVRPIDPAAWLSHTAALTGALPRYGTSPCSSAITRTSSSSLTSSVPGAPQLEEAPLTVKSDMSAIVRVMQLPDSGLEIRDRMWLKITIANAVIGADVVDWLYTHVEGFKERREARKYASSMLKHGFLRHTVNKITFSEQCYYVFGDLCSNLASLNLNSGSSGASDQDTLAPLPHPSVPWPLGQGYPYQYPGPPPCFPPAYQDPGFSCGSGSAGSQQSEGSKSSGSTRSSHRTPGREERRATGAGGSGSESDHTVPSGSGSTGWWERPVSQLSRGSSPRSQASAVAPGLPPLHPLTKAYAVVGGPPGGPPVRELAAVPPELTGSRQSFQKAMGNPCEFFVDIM

Ka [1] | Dissociation rate constant (koff) [2] | Kd [3] [µM] | Activity [4] | Kd [5] [µM] | Structure (SMILES)
1.04 ×10⁴ /M/s | 1.45 s⁻¹ | 139 |  |  | O=C(O)Cc1coc2cc(OS(=O)(=O)c3ccc(Cl)cc3F)ccc12
2.32 ×10³ /M/s | 6.22 ×10⁻¹ /s | 268 | Active |  | COc1cc(/C=C2\Sc3ccccc3C2=O)ccc1OCC(=O)O
3.2 ×10³ /M/s | 2.51 s⁻¹ | 783 |  |  | COC(=O)COc1ccc(/C=C2\Sc3ccccc3C2=O)cc1
4.68 ×10⁶ /M/s |  | 251 |  |  | COC(=O)CN1C(=O)S/C(=C/c2ccc(-c3cccc(C(=O)O)c3C)o2)C1=O
 |  |  |  | 237 | CC(C)[C@H](OC(=O)[C@H](C)NC(=O)[C@@H](OC(=O)[C@H](C)NC(=O)OC(C)(C)C)C(C)C)C(=O)O
2.5 ×10³ /M/s | 3.81 ×10⁻¹ /s | 152 |  |  | CCCN1C(=O)/C(=C/c2ccc(OCC(=O)O)c(Cl)c2)NC1=S
5.47 ×10⁴ /M/s | 1.7 ×10¹ /s | 311 |  |  | O=C(O)C1CCN(C(=O)c2cc(-c3ccc(Cl)s3)nc3ccccc23)CC1
